Laboratory results taken from patent US6362163B1, “Parathyroid hormone-related peptide analogs” (The General Hospital Corporation, priority 1996, dated 2002).

Experiments:
PTH/PTHrP receptor [1] = biological target: T1, PTH/PTHrP receptor (Homo sapiens, UniProt Q03431); experiment: Competition radioligand binding, COS-7 cells transfected with human PTH/PTHrP receptor
T1 construct: expressed in transfected cells; host or cells: COS-7 cells, transient transfection, vector pcDNA-1
T1 sequence (Q03431 27-593): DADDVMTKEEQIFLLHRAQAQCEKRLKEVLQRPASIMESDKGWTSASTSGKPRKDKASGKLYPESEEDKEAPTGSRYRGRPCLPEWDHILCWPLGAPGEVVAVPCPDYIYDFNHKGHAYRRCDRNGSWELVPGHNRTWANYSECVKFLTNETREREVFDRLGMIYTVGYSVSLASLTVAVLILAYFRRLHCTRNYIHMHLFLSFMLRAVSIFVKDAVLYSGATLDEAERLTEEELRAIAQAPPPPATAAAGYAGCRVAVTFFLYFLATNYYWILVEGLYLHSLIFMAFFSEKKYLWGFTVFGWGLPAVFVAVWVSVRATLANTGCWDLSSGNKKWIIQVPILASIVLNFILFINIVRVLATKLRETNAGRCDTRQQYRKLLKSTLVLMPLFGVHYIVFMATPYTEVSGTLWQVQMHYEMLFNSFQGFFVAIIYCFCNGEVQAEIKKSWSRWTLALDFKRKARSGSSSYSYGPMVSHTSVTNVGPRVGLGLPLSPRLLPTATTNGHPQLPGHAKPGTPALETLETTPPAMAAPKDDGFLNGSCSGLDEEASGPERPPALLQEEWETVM
Method: (§1) The cDNAs encoding the human PTH/PTHrP receptor (Schipani, E. et al., Endocrinology 132:2157-2165 (1993)) and the human PTH-2 receptor (Usdin, T. et al., J. Biol. Chem. 270:15455-15458 (1995)) were carried on the expression vectors pcDNA-1 and pcDNAI/Amp (InVitrogen, San Diego, Calif.), respectively. COS-7 cells were cultured and transfected as described previously (Lee, C. et al., Mol. Endocrinol. 9:1269-1278 (1995)). Cells were transfected in 24-well plates using plasmid DNA (200 ng/well) purified by cesium chloride/ethidium bromide gradient centrifugation. Ligand binding and cAMP accumulation assays were performed three days after transfection, by which time the cell density reached 500,000±100,000 cells/well.
(§2) Binding reactions were performed as described previously. Id. Each well (final volume: […]) contained 26 fmole of ^125I-[Nle^8,21,Tyr^34]rPTH(1-34)NH2 (100,000 CPM) and various amounts (0.4-300 pmole) of an unlabeled competitor ligand, both diluted in binding buffer (50 mM Tris-HCl, pH 7.7, 100 mM NaCl, 5 mM KCl, 2 mM CaCl, 5% heat-inactivated horse serum, 0.5% heat-inactivated fetal bovine serum). Incubations were at room temperature for 2 hours, except for experiments involving Scatchard analysis, which were performed at 4° C. for 6 hours. At the end of the binding reaction, the cells were rinsed 3 times with 0.5 ml of binding buffer, lysed with 0.5 ml of 5M NaOH, and the entire lysate was counted. Nonspecific binding of tracer (NSB), determined in wells containing 1 μM of [NleTyr^8,21,Tyr^34]rPTH-(1-34)NH2, was ˜1% of total counts added. Maximum specific binding (B0) was calculated as the total radioactivity bound to cells in the absence of unlabeled PTH ligand, minus NSB. […] For Scatchard analyses, homologous competition binding studies were performed that used ^125I-[-NleTyr^8,21,Tyr^34]rPTH-(1-34)NH2 (26 fmole/well) and varying amounts (1.2-300 pmol) of the same unlabeled ligand. Estimates of the number of receptors/cell derived from these studies assumed a single class of binding sites and a transfection efficiency of 20% (Abou-Samra, A. B. et al., Proc. Natl. Acad. Sci (USA) 89:2732-2736 (1992)).

PTH-2 receptor [2] = biological target: T2, PTH-2 receptor (Homo sapiens, UniProt P49190); experiment: Competition radioligand binding, COS-7 cells transfected with human PTH-2 receptor
T2 construct: expressed in transfected cells; host or cells: COS-7 cells, transient transfection, vector pcDNAI/Amp
T2 sequence (P49190 25-550): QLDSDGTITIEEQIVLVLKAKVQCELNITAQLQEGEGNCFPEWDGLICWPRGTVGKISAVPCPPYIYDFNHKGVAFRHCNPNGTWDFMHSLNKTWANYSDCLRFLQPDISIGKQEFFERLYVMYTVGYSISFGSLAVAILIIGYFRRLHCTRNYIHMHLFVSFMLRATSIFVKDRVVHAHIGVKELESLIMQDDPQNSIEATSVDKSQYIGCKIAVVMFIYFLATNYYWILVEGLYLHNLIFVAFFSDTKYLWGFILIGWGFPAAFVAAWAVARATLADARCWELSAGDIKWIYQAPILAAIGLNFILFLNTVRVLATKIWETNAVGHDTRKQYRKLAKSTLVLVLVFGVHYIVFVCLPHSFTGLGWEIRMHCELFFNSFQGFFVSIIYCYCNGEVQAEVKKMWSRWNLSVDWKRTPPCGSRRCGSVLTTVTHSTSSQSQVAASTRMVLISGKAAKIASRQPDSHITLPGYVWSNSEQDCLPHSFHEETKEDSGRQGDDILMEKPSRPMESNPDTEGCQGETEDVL
Method: as §1, §2

PTH/PTHrP receptor [3] = biological target: T1, PTH/PTHrP receptor; experiment: Ligand-induced intracellular cAMP accumulation, COS-7 cells expressing human PTH/PTHrP receptor; format: cell-based; conditions: for cAMP agonist activity in words, PTH/PTHrP receptor: COS-7 cells; for cAMP accumulation Maximum, PTH/PTHrP receptor: highest level of cAMP attained, basal 4.6 ± 0.2 not subtracted, 1h at room temperature
Method: as §1
(§3) Transfected COS-7 cells were rinsed with […] of binding buffer. 200 μl of IBMX buffer (DMEM containing 2 mM IBMX, 1 mg/ml bovine serum albumin, 35 mM Hepes-NaOH, pH 7.4) and […] of binding buffer or binding buffer containing various amounts of a PTH or PTHrP analog were then added. The plates were incubated for 60 minutes at room temperature. The buffer was then withdrawn and the cells lysed by placing the plates on powdered dry ice and adding 0.5 ml of 50 mM HCl. The acid lysate was diluted 1/30 in dH2O, and an aliquot (5-50 μl) analyzed for cAMP content by radioimmunoassay. […] The cells were then incubated for 30 minutes at room temperature, and the resulting intracellular cAMP was measured by RIA. Data were analyzed using the AssayZap software (Elsevier Science Publishers BV, Cambridge, United Kingdom).

PTH-2 receptor [4] = biological target: T2, PTH-2 receptor; experiment: Ligand-induced intracellular cAMP accumulation, COS-7 cells expressing human PTH-2 receptor; format: cell-based; conditions: for cAMP agonist activity in words, PTH-2 receptor: COS-7 cells; for cAMP accumulation Maximum, PTH-2 receptor: highest level of cAMP attained, basal 5.4 ± 0.3 not subtracted, 1h at room temperature
Method: as §1, §3

PTH-2 receptor [5] = biological target: T2, PTH-2 receptor; experiment: Antagonism of PTH-(1-34)-induced cAMP formation, COS-7 cells expressing PTH-2 receptor; format: cell-based; conditions: IBMX, 30 minutes at room temperature
Method: (§4) FIGS. 7A and 7B depicts the antagonism of PTH-(1-34)-induced cAMP formation in COS-7 cells expressing PTH/PTHrP or PTH-2 receptors. […] The corresponding basal cAMP levels in cells not treated with peptide were […] pmoles/well, respectively. Data are the mean (±s.e.m.) of two experiments, each performed in duplicate.
as §3

PTH/PTHrP receptor [6] = biological target: T1, PTH/PTHrP receptor; experiment: Antagonism of PTH-(1-34)-induced cAMP formation, COS-7 cells expressing PTH/PTHrP receptor; format: cell-based; conditions: IBMX, 30 minutes at room temperature
Method: as §4, §3

[7] = agonist [Tyr34]hPTH-(1-34)NH2 1 nM
[8] = competition with radioligand, COS-7 cells

| Substance | Binding affinity, fold stronger than PTHrP-(1-36) (PTH/PTHrP receptor [1]; PTH/PTHrP receptor) [fold] | Enhancement of binding potency compared to PTHrP-(1-36) (PTH-2 receptor [2]; PTH-2 receptor) [fold] | cAMP agonist activity in words, PTH/PTHrP receptor (PTH/PTHrP receptor [3]) | cAMP accumulation Maximum, PTH/PTHrP receptor (PTH/PTHrP receptor [3]) [pmoles/well] | cAMP agonist activity in words, PTH-2 receptor (PTH-2 receptor [4]) | cAMP accumulation Maximum, PTH-2 receptor (PTH-2 receptor [4]) [pmoles/well] | Inhibition of PTH-(1-34)-induced cAMP activity in words, PTH-2 receptor (PTH-2 receptor [5]; [7]) | Effect on PTH-(1-34)-induced cAMP response in words, PTH/PTHrP receptor (PTH/PTHrP receptor [6]; [7]) | Binding potency, fold more potent than PTHrP-(1-36) (PTH/PTHrP receptor [1]; PTH/PTHrP receptor, inhibition of radioligand binding) [fold] | Binding in words, PTH/PTHrP receptor (PTH/PTHrP receptor [1]; [8]) | Binding in words, PTH-2 receptor (PTH-2 receptor [2]; [8]) | cAMP level in cells treated with agonist alone, PTH-2 receptor (PTH-2 receptor [5]; 1 nM) [pmoles/well] | cAMP level in cells treated with agonist alone, PTH/PTHrP receptor (PTH/PTHrP receptor [6]; 1 nM) [pmoles/well] |
| --- | --- | --- | --- | --- | --- | --- | --- | --- | --- | --- | --- | --- | --- |
| [Trp^23,Tyr^36]hPTHrP-(1-36) [[W23, Y36]hPTHrP-(1-36)NH2] | 6 | 71 | potent agonist | 123 ± 14 | inactive | 12 ± 1 | at least as potent as [Leu^11,D-Trp^12]hPTHrP(7-34)NH2 | not an antagonist, but instead augmented the agonist response to PTH-(1-34) | – | – | – | – | – |
| [Tyr^34]hPTH-(1-34)NH2 [[Y34]hPTH-(1-34)NH2, reference compound] | – | – | full and potent agonists | 113 ± 13 | potent agonist | 81 ± 5 | – | – | 4.8 | fully inhibited binding of the radioligand | bound with high apparent affinity | 70±8 | 167±17 |
